Data taken from patent US6313090A, “Methods for treating parasitic infection using thiopeptides” (The United States of America as represented by the …, priority 2000, dated 2001).

Legend:
[1] = Precipitation seen in culture medium of the growth assay; type: physicochemical; details: highest concentrations (final 0.2mM) in culture
Method: Assay of Growth inhibition. Thiostrepton (1525 u/mg; Calbiochem) and anisomycin (Sigma) were dissolved at 100 mM in DMSO (Pierce). P. falciparum (strain 3D7) (44) was maintained in culture with human erythrocytes (5% hematocrit) in RPMI-1640 (Life Technologies) supplemented with HEPES and sodium bicarbonate and human sera (10%) under standard conditions (18,19). The growth inhibition assay was conducted as described (20). Briefly, the parasitemia was adjusted to 0.1% parasitemia, 2.5% hematocrit and 200 μl aliquots placed in wells of a microtitre dish. Serial dilutions of drugs were made in RPMI. Thiostrepton was diluted to 10 mM in DMSO before the serial dilutions in RPMI. Aliquots (20 μl) were added in triplicate to the cultures in the microtitre plate, mixing well. At the highest concentrations (final 0.2mM), thiostrepton precipitates. After incubation for 48 hours under standard conditions, [2,8-^3 H]-hypoxanthine Moravek Biochemicals, 12.5 Ci/mmol) in RPMI (20 μl, 0.05 mCi/ml) was added to each well. After incubation for a further 24 hours, the cultures were lysed and incorporated radioactivity was measured with an automated counter.

[2] = system: rpoB/C mRNA encoded by the 35-kb plastid-like organelle genome; type: cell-based, P. falciparum
Method: As of organelle and cyloplasmic transcript levels. RNA polymerase transcript levels were assessed by comparing the amounts of RNA synthesized at timepoints following drug treatment. Cultures of P. falciparum (3.2% parasitemia, 5% hematocrit) were treated with thiostrepton at 8 μM and rifampin (Sigma) at 80 μM; near the IC99 values (this study and ref. 22). Aliquots (5 ml) of treated and control cultures were removed and immediately processed for RNA with a guanidinium thiocyanate solution, according to the manufacturer's directions (RNAgents, Promega). All RNA samples were dissolved in 50 μl DEPC-treated water, DNase I treated as previously described (23) and an aliquot (1 μl) was removed for RT-PCR First strand synthesis of cDNA was completed with a random hexamer (Superscript Preamplification System, Life Technologies). One-tenth of the CDNA product was utilized for PCR of rpoB/C, MSA1, and rRNA. Primers corresponding to the 3' region of rpoB, 5'-GGGCTTTAGAAGCTTTTGG-3' (SEQ ID NO:1), and the 5' region of rpoC, 5'-[…]-3' (SEQ ID NO:2) were applied as described (2,3) for PCR of nascent rpoB/C transcripts. Reactions were cycled with the following parameters: 94° C./30 seconds, 42° C./30 seconds, 72° C./60 seconds, 35 cycles. Primers for amplification of nucleotide 64 to 614 of MSA1 with 5'-GTGTGATAATATTCATGG-3' (SEQ ID NO:3) and 5'-GGAGAGCATTTGGTG-3' (SEQ ID NO:4)(24) and the small subunit rRNA with oligonucleotides 841 and 844 (23) were used for amplification reactions following the parameters in the respective references except with 35 cycles. Samples were also analyzed after 25 cycles of amplification to ensure detection in the linear range of the amplification reaction, with similar results. Following electrophoresis of aliquots from the amplification reactions on 1% agarose:TBE gels, samples were transferred to nylon membranes (GeneScreen Plus, DuPont) and hybridized as described (25). The amplification products were probed with 5'-^32 P-labeled oligonucleotides. The rpoB/C products were probed with 5'-[…]-3' (SEQ ID NO:5) (nucleotide 2009-2030 of rpoB) and 5'-CGGAGAGGTATTAATACC-3' (SEQ ED NO:6) (nucleotide 108-125 of rpoC), in 5×SSC, 10 mM sodium phosphate, 0.05% sodium pyrophosphate, 1% sodium dodecyl sulfate, 5×Denhardt's solution, 100 μg/ml yeast tRNA, 42° C. and washed in the hybridization solution lacking Denhardt's and tRNA at 37° C., three times. The final wash was 1×SSC, 0.5% sodium dodecyl sulfate, 42° C. followed by autoradiography. The same results were obtained with either probe. The MSA1 amplification products were similarly probed with 5'-[…]-3' (SEQ ID NO:7) and the rRNA products with oligonucleotide 842 (23).
The target of inhibition by thiostrepton. […]

[3] = system: P. falciparum total protein synthesis; assay: Assay of inhibition of protein synthesis, [3H]leucine incorporation; type: cell-based
Method: Assay of Inhibition of Protein Synthesis. Assay for inhibition of protein synthesis was similar to above except the culture and drug dilutions were in RPMI-1640 without leucine (Select-Amine, Life Technologies) and the sera was extensively dialyzed as described (21). Also, the cultures were adjusted to 1% parasitemia prior to the experiment. Microtitre plates were set up with drug dilutions as described above except cultures were incubated with drug for only 4 hours. [3,4,5-^3 H]-Leucine (Moravek Biochemicals, 122 Ci/mmol, 0.5 mCi/ml, 100 μCi) was diluted to 4 ml in RPMI without leucine. The radiolabeled leucine (20 μl, […]) was added to each well and the plates were further incubated for four hours. The microtitre plates were processed as above to quantitate the incorporated radiolabel.
Assay of inhibition. The effect of thiostrepton on growth and protein synthesis of P. falciparum was compared to anisomycin, since the effect of both of these drugs is on protein synthesis. To assay the effect of thiostrepton and anisomycin on the growth of P. faciparum, inhibition of the uptake and incorporation of [^3 H]hypoxanthine was quantitated at serial dilutions of the drugs on an in vitro culture of P. falciparum. […] Inhibition of the incorporation of [^3 H]leucine was also tested at the same dilutions of the drugs. […]

## C=C(NC(=O)C(=C)NC(=O)c1csc(C2=N[C@@H]3c4csc(n4)[C@H]4NC(=O)c5csc(n5)[C@H]([C@](C)(O)[C@@H](C)O)NC(=O)[C@H]5CSC(=N5)/C(=C/C)NC(=O)[C@H]([C@@H](C)O)NC(=O)c5csc(n5)[C@]3(CC2)NC(=O)[C@H](C)NC(=O)C(=C)NC(=O)[C@H](C)NC(=O)[C@H]([C@@H](C)CC)N[C@@H]2C=Cc3c([C@H](C)O)cc(nc3[C@H]2O)C(=O)O[C@@H]4C)n1)C(N)=O [Thiostrepton, thiostrepton]
[1]
  precipitation: precipitates
[2]; thiostrepton at 8 μM, rifampin at 80 μM
  decay of mRNA corresponding to rpoB/C, time of drug treatment: ≤ 6 h
[2]; time course, 8 μM
  decline of the rpoB/C product with time: notable affect after only one hour of treatment
[2]; within the duration of the experiment (8 hours), 8 μM
  effect on levels of nuclear-encoded MSA mRNA and total rRNA: no effect
[3]; at the IC50 for growth
  inhibition of total protein synthesis: only a negligible amount of inhibition
[3]; relative to the IC50 for growth
  concentration required for almost complete inhibition of total protein synthesis: More than ten-fold higher concentrations than the IC50
